Drawing on US20220009914A1, “Analogs of Nitrofuran Antibiotics to Combat Resistance” (The Trustees of Indiana University, priority 2020, published 2022), this text covers IC50 for 27 molecules.

Read-outs that look alike come from different tables or passages of the source. A value given as a limit tells only on which side of the number the result lay.

One assay concerns the target T1, native MDH (Sus scrofa, UniProt P00346).
T1 sequence (P00346 25-338): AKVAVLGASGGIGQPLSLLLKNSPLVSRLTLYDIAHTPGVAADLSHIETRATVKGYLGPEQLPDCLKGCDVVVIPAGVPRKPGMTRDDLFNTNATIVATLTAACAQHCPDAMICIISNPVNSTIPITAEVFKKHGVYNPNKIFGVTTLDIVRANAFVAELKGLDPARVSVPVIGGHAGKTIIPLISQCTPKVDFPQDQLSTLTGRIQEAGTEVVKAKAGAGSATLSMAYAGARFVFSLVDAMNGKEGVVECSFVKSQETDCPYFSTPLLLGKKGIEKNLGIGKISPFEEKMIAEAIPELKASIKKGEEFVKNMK
Nature of the assay: native MDH enzymatic activity counter-screen. As to conditions: without NfsB nitroreductase; compounds added after refolding; read-out: Native MDH Activity IC50. The format is biochemical, pig. As for the experimental part: Reagent Preparations & Assay Protocol: This assay was performed as described above for the GroEL/ES-dMDH refolding assay; however, the assay protocol differed in the sequence of compound addition to the assay plates. The refolding reactions were allowed to proceed for 45 min at 37° C. in the absence of test compounds (complete refolding of MDH occurs), then quenched with the EDTA stock. Compounds were then pin-transferred into the plates after the EDTA quenching step; thus, compound effects are only possible by inhibiting the fully-refolded MDH reporter substrate. […] A340 nm measurements were recorded at 0.5 minutes (start point) and at successive time points until the amount of NADH consumed reached ˜90% (end point, generally between 20-35 minutes). Compounds were tested in 8-point, 3-fold dilution series (62.5 μM to 29 nM during the reporter reaction) in clear, flat-bottom 384-well microtiter plates. IC50 values for the MDH reporter enzyme were determined as described above. Results presented represent the averages of IC50 values obtained from at least five replicates.
Evaluating analogs for inhibiting GroEL/ES-mediated substrate refolding functions. […] We first evaluated all test compounds in our standard GroEL/ES-mediated refolding assays that employ either malate dehydrogenase (MDH) or rhodanese (Rho) as the denatured substrate reporter enzymes. When denatured, these enzymes are efficiently folded by GroEL/ES in the absence of inhibitors, and thus act as reporters to determine the degree of inhibition against the bacterial chaperonin system. Inhibition was examined in the presence of these two orthogonal substrates in order to support that GroEL/ES inhibitors were on-target. To further support on-target effects against GroEL/ES, we counter-screened for inhibition of the native MDH and Rho enzymatic reporter reactions, where test compounds were added after the denatured MDH and Rho substrate enzymes were completely refolded by GroEL/ES.
For orientation: A counterscreen serves to expose hits that act by an unwanted route or on another target.

A further assay concerns the target T2, E. coli GroEL/ES (Escherichia coli, UniProt P0A6F5).
T2 construct: made in house; host or cells: GroEL in NEB 5-alpha E. coli; GroES in E. coli BL21 (DE3)
The assay can be described thus: GroEL/ES-mediated dRho refolding assay. In kind it is biochemical. On the procedure: Evaluating compounds for inhibition in the GroEL/ES-mediated dRho refolding assay. Reagent preparation: For this assay, five primary reagent stocks were prepared: 1) GroEL/ES-dRho binary complex stock; 2) ATP initiation stock; 3) thiocyanate enzymatic assay stock; 4) formaldehyde quench stock; 5) ferric nitrate reporter stock. Denatured rhodanese (dRho) was prepared by 3-fold dilution of rhodanese (Roche product #R^1756, diluted to 10 mg/mL with H2O) with denaturant buffer (12 M Urea, 50 mM Tris-HCl, pH 7.4, and 10 mM DTT). Rhodanese was completely denatured by incubating at room temperature for >45 min. The binary complex solution was prepared by slowly adding the dRho stock to a stirring stock of concentrated GroEL in modified folding buffer (50 mM Tris-HCl, pH 7.4, 50 mM KCl, 10 mM MgCl2, 5 mM Na2S2O3, and 1 mM DTT). The solution was centrifuged at 16,000×g for 5 minutes, and the supernatant was collected and added to a solution of GroES in modified folding buffer to give final protein concentrations of 100 nM GroEL, 120 nM GroES, and 80 nM dRho. The binary complex stock was prepared immediately prior to use. For the ATP initiation stock, ATP solid was diluted into modified folding buffer to a final concentration of 2.0 mM. The thiocyanate enzymatic assay stock was prepared to contain 70 mM KH2PO4, 80 mM KCN, and 80 mM Na2S2O3 in water. The formaldehyde quench solution contained 30% formaldehyde in water.
Assay Protocol: First, 10 μL aliquots of the GroEL/ES-dRho complex stock were dispensed into clear, flat-bottom 384-well polystyrene plates. […] After incubating for 40 minutes at 37° C. for the refolding cycle, 30 μL of the thiocyanate enzymatic assay stock was added and incubated for 60 min at room temperature for the refolded rhodanese enzymatic reporter reaction. The reporter reaction was quenched by adding 10 μL of the formaldehyde quench stock, and then 40 μL of the ferric nitrate reporter stock was added to quantify the amount of thiocyanate produced during the enzymatic reporter reaction, which is proportional to the amount of dRho refolded by GroEL/ES. After incubating at room temperature for 15 min, the absorbance by Fe(SCN)3 was measured at 460 nm using a Molecular Devices SpectraMax Plus384 microplate reader. A second set of baseline control plates were prepared analogously, but without GroEL/ES-dRho protein binary solution, to correct for possible interference from compound absorbance or turbidity. […] Results presented represent the averages of IC50 values obtained from at least four replicates.
Evaluating compounds for inhibition in the GroEL/ES-mediated dRho refolding assay. All compounds were evaluated for inhibiting E. coli GroEL/ES-mediated refolding of the denatured Rho reporter enzyme as per our previously reported procedure. Results presented represent the averages of IC50 values obtained from at least four replicates.

Setting [1] is: read-out: GroEL/ES-dRho Refolding IC50.

T2 sequence (P0A6F5 2-548): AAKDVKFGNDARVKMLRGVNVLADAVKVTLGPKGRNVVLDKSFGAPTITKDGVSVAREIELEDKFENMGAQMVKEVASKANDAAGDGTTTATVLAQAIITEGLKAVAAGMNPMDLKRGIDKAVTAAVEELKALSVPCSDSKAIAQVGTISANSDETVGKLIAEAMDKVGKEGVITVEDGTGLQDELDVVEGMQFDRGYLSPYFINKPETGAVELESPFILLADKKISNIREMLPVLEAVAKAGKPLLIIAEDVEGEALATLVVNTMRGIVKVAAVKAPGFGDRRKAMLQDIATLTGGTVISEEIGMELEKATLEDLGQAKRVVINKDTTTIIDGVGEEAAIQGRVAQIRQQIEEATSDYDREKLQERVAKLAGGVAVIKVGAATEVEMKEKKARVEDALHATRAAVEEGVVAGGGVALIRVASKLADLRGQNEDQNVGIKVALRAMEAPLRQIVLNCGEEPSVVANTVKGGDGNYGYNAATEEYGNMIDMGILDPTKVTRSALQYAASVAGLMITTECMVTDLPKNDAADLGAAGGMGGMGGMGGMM

Take `COc1ccc(C(=O)NN)cc1` [Compound 42, reference compound]: the IC50 on native MDH is greater than 63 µM; at E. coli GroEL/ES it was greater than 250 µM.

As to `COc1ccc(C(=O)N/N=C/c2cccc3ccccc23)cc1` [Compound 33, 4-methoxy-N′-(naphthalen-1-ylmethylene)benzohydrazide], the results for the IC50 on native MDH and at E. coli GroEL/ES were greater than 63 µM and 129 µM, respectively. As to `O=C(N/N=C/c1ccc([N+](=O)[O-])o1)c1cccc2ccccc12` [Compound 22, N′-((5-nitrofuran-2-yl)methylene)-1-naphthohydrazide], the IC50 on native MDH is greater than 63 µM; at E. coli GroEL/ES, 73 µM. On to `O=C(N/N=C/c1ccc(O)c2ncccc12)c1ccc(O)cc1` [Compound 7, 4-hydroxy-N′-((8-hydroxyquinolin-5-yl)methylene)benzohydrazide], for which the IC50 on native MDH is greater than 63 µM; against E. coli GroEL/ES it was 9 µM. For `O=C(N/N=C/c1ccc([N+](=O)[O-])o1)c1ccc(NS(=O)(=O)c2cccs2)cc1` [Compound 26, N-(4-(2-((5-nitrofuran-2-yl)methylene)hydrazine-1-carbonyl)phenyl)thiophene-2-sulfonamide] the same measures were greater than 63 µM and 62 µM. With `COc1ccc(C(=O)N/N=C/c2ccc(O)cc2)cc1` [Compound 35, N′-(4-hydroxybenzylidene)-4-methoxybenzohydrazide], the IC50 at native MDH is greater than 63 µM; against E. coli GroEL/ES, greater than 250 µM. For the molecule `O=C(N/N=C/c1cccc2ncccc12)c1ccccc1` [Compound 32, N′-(quinolin-5-ylmethylene)benzohydrazide], the IC50 on native MDH is greater than 63 µM; at E. coli GroEL/ES it was greater than 250 µM. In the case of `O=C(N/N=C/c1ccc(O)cc1)c1ccccc1` [Compound 36, N′-(4-hydroxybenzylidene)benzohydrazide], the results for the IC50 on native MDH and against E. coli GroEL/ES were greater than 63 µM and greater than 250 µM, respectively. `O=Cc1ccc(O)c2ncccc12` [Compound 40, reference compound]: the IC50 on native MDH is greater than 63 µM; at E. coli GroEL/ES (setting [1]) it was 30 µM. For `CCOc1ccc(S(=O)(=O)Nc2ccc(C(=O)N/N=C/c3ccc(O)c4ncccc34)cc2)cc1` [Compound 15, 4-ethoxy-N-(4-(2-((8-hydroxyquinolin-5-yl)methylene)hydrazine-1-carbonyl)phenyl)benzenesulfonamide], the IC50 at native MDH is greater than 63 µM; on E. coli GroEL/ES, 1.4 µM. For the molecule `O=C(N/N=C/c1ccc(O)c2ncccc12)c1ccccc1` [Compound 5, N′-((8-hydroxyquinolin-5-yl)methylene)benzohydrazide], the results for the IC50 on native MDH and against E. coli GroEL/ES were greater than 63 µM and 176 µM, respectively. `O=C(N/N=C/c1ccc(O)c2ncccc12)c1ccccc1Oc1ccccc1` [Compound 10, N′-((8-hydroxyquinolin-5-yl)methylene)-2-phenoxybenzohydrazide]: the IC50 at native MDH was greater than 63 µM; on E. coli GroEL/ES, 4.5 µM. `O=C(N/N=C/c1ccc(O)c2ncccc12)c1ccc(NS(=O)(=O)c2cccs2)cc1` [Compound 13, N-(4-(2-((8-hydroxyquinolin-5-yl)methylene)hydrazine-1-carbonyl)phenyl)thiophene-2-sulfonamide]: the IC50 is greater than 63 µM on native MDH and 0.81 µM against E. coli GroEL/ES. With `COc1ccc(C(=O)N/N=C/c2ccc(O)c3ncccc23)cc1` [Compound 1, N′-((8-hydroxyquinolin-5-yl)methylene)-4-methoxybenzohydrazide], the IC50 at native MDH is greater than 63 µM.

`O=[N+]([O-])c1ccc(O)c2ncccc12` [Nitroxoline, reference compound]: the IC50 on native MDH is greater than 63 µM; against E. coli GroEL/ES, 6.4 µM.

On to `O=C1CN(/N=C/c2ccc(O)c3ncccc23)C(=O)N1` [Compound 2, 1-(((8-hydroxyquinolin-5-yl)methylene)amino)imidazolidine-2,4-dione], for which the IC50 on native MDH was greater than 63 µM; against E. coli GroEL/ES, 86.4 µM. Molecule `COc1ccc(C(=O)N/N=C/c2ccc([N+](=O)[O-])o2)cc1` [Compound 20, 4-methoxy-N′-((5-nitrofuran-2-yl)methylene)benzohydrazide] returned an IC50 against E. coli GroEL/ES of 108 µM. `O=C(N/N=C/c1ccc(O)c2ccccc12)c1ccccc1` [Compound 30, N′-((4-hydroxynaphthalen-1-yl)methylene)benzohydrazide]: the values for the IC50 at native MDH and at E. coli GroEL/ES were greater than 63 µM and 216 µM, respectively. Regarding `COc1ccc(C(=O)N/N=C/c2cccc3ncccc23)cc1` [Compound 31, 4-methoxy-N′-(quinolin-5-ylmethylene)benzohydrazide], the IC50 on native MDH is greater than 63 µM; against E. coli GroEL/ES, greater than 250 µM.

For the molecule `CN(C)c1ccc(C(=O)N/N=C/c2ccc([N+](=O)[O-])o2)cc1` [Compound 21, 4-(dimethylamino)-N′-((5-nitrofuran-2-yl)methylene)benzohydrazide], the IC50 at E. coli GroEL/ES (setting [1]) was 26 µM. Same read-out and setting: the value for `O=C(N/N=C/c1ccc([N+](=O)[O-])o1)c1cccs1` [Compound 16, N′-((5-nitrofuran-2-yl)methylene)thiophene-2-carbohydrazide] was 222 µM. In turn, `O=C(N/N=C/c1ccc([N+](=O)[O-])o1)c1ccccc1` [Compound 18, N′-((5-nitrofuran-2-yl)methylene)benzohydrazide] showed an IC50 on E. coli GroEL/ES of 100 µM. On the same count and under the same terms, the value for `O=C(N/N=C/c1ccc([N+](=O)[O-])o1)c1ccncc1` [Compound 19, N′-((5-nitrofuran-2-yl)methylene)isonicotinohydrazide] was 64 µM. Take `CCN(CC)S(=O)(=O)c1cccc(C(=O)N/N=C/c2ccc([N+](=O)[O-])o2)c1` [Compound 25, N,N-diethyl-3-(2-((5-nitrofuran-2-yl)methylene)hydrazine-1-carbonyl)benzenesulfonamide]: the values for the IC50 at native MDH and against E. coli GroEL/ES were greater than 63 µM and 100 µM, respectively. For the molecule `O=C(N/N=C/c1ccc([N+](=O)[O-])o1)c1ccc(Cl)s1` [Compound 17, 5-chloro-N′-((5-nitrofuran-2-yl)methylene)thiophene-2-carbohydrazide], on E. coli GroEL/ES (setting [1]), the IC50 was 60 µM. Regarding `O=C(N/N=C/c1ccc([N+](=O)[O-])o1)c1ccccc1Oc1ccccc1` [Compound 23, N′-((5-nitrofuran-2-yl)methylene)-2-phenoxybenzohydrazide], the IC50 on native MDH was greater than 63 µM. With `O=C1CN(/N=C/c2ccc([N+](=O)[O-])o2)C(=O)N1` [Nitrofurantoin, reference compound], the IC50 against E. coli GroEL/ES is greater than 250 µM.
